Where a name gives a salt, the structure may show the parent alone.
Experiments:
p38alpha = biological target: T1, p38alpha (Homo sapiens, UniProt Q16539); experiment: P38Alpha enzyme inhibition assay (Alphascreen kinase activity assay); assay type: biochemical; conditions: 100 pM p38alpha, 250 μM ATP, 2 hours pre-incubation at 25° C., read-out: p38α inhibition (IC50 values)
T1 construct: purchased Invitrogen PV3304
Method in brief: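 AlphaScreen read-out: after an EDTA stop, an anti-phospho-ATF2 antibody with Protein A acceptor and donor beads measured substrate phosphorylation. Compounds sat 2 h at 25°C with 100 pM p38α and 0.3 µg/ml ATF-2 fusion protein (pH 7.5, 1% DMSO) before 250 µM ATP was added for 1 h. IC50 from dose-response.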

[1] = test system: LPS-stimulated TNFα release from PBMCs; experiment: LPS-stimulated PBMC TNFα release assay; assay type: cell-based; conditions: inhibition of TNFα release, human PBMCs, LPS 10 ng/ml, 18 h, ELISA, read-out: p38α inhibition (IC50 values)
Method in brief: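 TNFα in supernatants measured by ELISA after 18 h LPS (10 ng/ml) challenge of human PBMCs given 1 h compound pretreatment at 37 °C in medium with 1% FBS. Percent inhibition versus control release fitted to dose-response curves for IC50; at least three independent runs.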

T1 sequence (Q16539 whole entry): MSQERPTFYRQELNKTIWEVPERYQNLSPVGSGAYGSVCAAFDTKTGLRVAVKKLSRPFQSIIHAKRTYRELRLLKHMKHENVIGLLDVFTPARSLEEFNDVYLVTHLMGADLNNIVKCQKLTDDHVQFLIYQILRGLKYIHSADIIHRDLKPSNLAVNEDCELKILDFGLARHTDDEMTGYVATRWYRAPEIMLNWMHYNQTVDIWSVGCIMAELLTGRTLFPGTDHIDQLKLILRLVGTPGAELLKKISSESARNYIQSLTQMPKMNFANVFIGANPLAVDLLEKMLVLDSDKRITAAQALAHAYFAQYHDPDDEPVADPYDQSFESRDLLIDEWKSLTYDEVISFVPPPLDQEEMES

Row | Compound | IC50 (p38alpha) [nM] | IC50 [1] [nM]
1 | CN(C)CCCn1cc(-n2nc(C(C)(C)C)cc2NC(=O)N[C@H]2CC[C@@H](Oc3ccc4nnc(N5CCCCC5)n4c3)c3ccccc32)cn1 [Example 113, 1-[3-tert-Butyl-1′-(3-dimethylamino-propyl)-1′H-[1,4′]bipyrazolyl-5-yl]-3-[(1S,4R)-4-(3-piperidin-1-yl-[1,2,4]triazolo[4,3-a]pyridin-6-yloxy)-1,2,3,4-tetrahydro-naphthalen-1-yl]-urea formate salt] | < 10 | < 10
2 | CC(C)(C)c1cc(NC(=O)N[C@H]2CC[C@@H](Oc3ccc4nnc(N5CCCCC5)n4c3)c3ccccc32)n(-c2cnn(CCCN3CCOCC3)c2)n1 [Example 114, 1-[3-tert-Butyl-1′-(3-morpholin-4-yl-propyl)-1′H-[1,4′]bipyrazolyl-5-yl]-3-[(1S,4R)-4-(3-piperidin-1-yl-[1,2,4]triazolo[4,3-a]pyridin-6-yloxy)-1,2,3,4-tetrahydro-naphthalen-1-yl]-urea formate salt] | < 10 | < 10
3 | C[C@H]1CCCCN1c1nnc2ccc(O[C@@H]3CC[C@H](NC(=O)Nc4cc(C(C)(C)C)nn4CCN4CCOCC4)c4ccccc43)cn12 [Example 116, 1-[5-tert-Butyl-2-(2-morpholin-4-yl-ethyl)-2H-pyrazol-3-yl]-3-{(1S,4R)-4-[3-((S)-2-methyl-piperidin-1-yl)-[1,2,4]triazolo[4,3-a]pyridin-6-yloxy]-1,2,3,4-tetrahydro-naphthalen-1-yl}-urea] | < 10 | < 10
4 | C[C@@H]1CCC[C@H](C)N1c1nnc2ccc(O[C@@H]3CC[C@H](NC(=O)Nc4cc(C(C)(C)C)nn4CCO)c4ccccc43)cn12 [Example 118, 1-[5-tert-Butyl-2-(2-hydroxy-ethyl)-2H-pyrazol-3-yl]-3-{(1S,4R)-4-[3-((2S,6R)-2,6-dimethyl-piperidin-1-yl)-[1,2,4]triazolo[4,3-a]pyridin-6-yloxy]-1,2,3,4-tetrahydro-naphthalen-1-yl}-urea] | < 10 | < 10
5 | CN(C)CCn1cnc(-n2nc(C(C)(C)C)cc2NC(=O)N[C@H]2CC[C@@H](Oc3ccc4nnc(N5CCCCC5)n4c3)c3ccccc32)c1 [Example 119, 1-{5-tert-Butyl-2-[1-(2-dimethylamino-ethyl)-1H-imidazol-4-yl]-2H-pyrazol-3-yl}-3-[(1S,4R)-4-(3-piperidin-1-yl-[1,2,4]triazolo[4,3-a]pyridin-6-yloxy)-1,2,3,4-tetrahydro-naphthalen-1-yl]-urea] | < 10 | 10 to 100
6 | CN1CCCC[C@H]1c1nnc2ccc(O[C@@H]3CC[C@H](NC(=O)Nc4cc(C(C)(C)C)nn4CCO)c4ccccc43)cn12 [Example 120, 1-[5-tert-Butyl-2-(2-hydroxy-ethyl)-2H-pyrazol-3-yl]-3-{(1S,4R)-4-[3-((S)-1-methyl-piperidin-2-yl)-[1,2,4]triazolo[4,3-a]pyridin-6-yloxy]-1,2,3,4-tetrahydro-naphthalen-1-yl}-urea] | < 10 | < 10
7 | CN(C)CCOc1cccc(-n2nc(C(C)(C)C)cc2NC(=O)N[C@H]2CC[C@@H](Oc3ccc4nnc(N5C6CCCC5CC6)n4c3)c3ccccc32)c1 [Example 122, 1-{(1S,4R)-4-[3-(8-Aza-bicyclo[3.2.1]oct-8-yl)-[1,2,4]triazolo[4,3-a]pyridin-6-yloxy]-1,2,3,4-tetrahydro-naphthalen-1-yl}-3-{5-tert-butyl-2-[3-(2-dimethylamino-ethoxy)-phenyl]-2H-pyrazol-3-yl}-urea formate salt] | < 10 | < 10
8 | C[C@@H]1CCC[C@H](C)N1c1nnc2ccc(O[C@@H]3CC[C@H](NC(=O)Nc4cc(C(C)(C)C)nn4-c4cnn(CCN(C)C)c4)c4ccccc43)cn12 [Example 125, 1-[3-tert-Butyl-1′-(2-dimethylamino-ethyl)-1′H-[1,4′]bipyrazolyl-5-yl]-3-{(1S,4R)-4-[3-((2S,6R)-2,6-dimethyl-piperidin-1-yl)-[1,2,4]triazolo[4,3-a]pyridin-6-yloxy]-1,2,3,4-tetrahydro-naphthalen-1-yl}-urea] | < 10 | < 10
9 | C[C@H]1CCCCN1c1nnc2ccc(O[C@@H]3CC[C@H](NC(=O)Nc4cc(C(C)(C)C)nn4C)c4ccccc43)cn12 [Example 126, 1-(5-tert-Butyl-2-methyl-2H-pyrazol-3-yl)-3-{(1S,4R)-4-[3-((S)-2-methyl-piperidin-1-yl)-[1,2,4]triazolo[4,3-a]pyridin-6-yloxy]-1,2,3,4-tetrahydronaphthalen-1-yl]-urea] | < 10 | < 10
10 | C[C@H]1CCCCN1c1nnc2ccc(O[C@@H]3CC[C@H](NC(=O)Nc4cc(C(C)(C)C)nn4CCN4CCCCC4)c4ccccc43)cn12 [Example 128, 1-[5-tert-Butyl-2-(2-piperidin-1-yl-ethyl)-2H-pyrazol-3-yl]-3-{(1S,4R)-4-[3-((S)-2-methyl-piperidin-1-yl)-[1,2,4]triazolo[4,3-a]pyridin-6-yloxy]-1,2,3,4-tetrahydro-naphthalen-1-yl}-urea formate salt] | < 10 | < 10
11 | C[C@H]1CCCCN1c1nnc2ccc(O[C@@H]3CC[C@H](NC(=O)Nc4cc(C(C)(C)C)nn4CCN4CCN(C)CC4)c4ccccc43)cn12 [Example 129, 1-{5-tert-Butyl-2-[2-(4-methyl-piperazin-1-yl)-ethyl]-2H-pyrazol-3-yl}-3-{(1S,4R)-4-[3-((S)-2-methyl-piperidin-1-yl)-[1,2,4]triazolo[4,3-a]pyridin-6-yloxy]-1,2,3,4-tetrahydro-naphthalen-1-yl}-urea formate salt] | < 10 | 10 to 100

Further lines, with some results ahead:

Row | IC50 (p38alpha) [nM] | Compound | IC50 [1] [nM]
12 | < 10 | C[C@@H]1CCC[C@H](C)N1c1nnc2ccc(O[C@@H]3CC[C@H](NC(=O)Nc4cc(F)cc(N5CCOCC5)c4)c4ccccc43)cn12 [Example 115, 1-{(1S,4R)-4-[3-((2S,6R)-2,6-Dimethyl-piperidin-1-yl)-[1,2,4]triazolo[4,3-a]pyridin-6-yloxy]-1,2,3,4-tetrahydro-naphthalen-1-yl}-3-(3-fluoro-5-morpholin-4-yl-phenyl)-urea] | < 10
13 | < 10 | C[C@@H]1CCC[C@H](C)N1c1nnc2ccc(O[C@@H]3CC[C@H](NC(=O)Nc4cc(C(C)(C)C)nn4CCN4CCOCC4)c4ccccc43)cn12 [Example 121, 1-[5-tert-Butyl-2-(2-morpholin-4-yl-ethyl)-2H-pyrazol-3-yl]-3-{(1S,4R)-4-[3-((2S,6R)-2,6-dimethyl-piperidin-1-yl)-[1,2,4]triazolo[4,3-a]pyridin-6-yloxy]-1,2,3,4-tetrahydro-naphthalen-1-yl}-urea] | < 10
14 | < 10 | C[C@@H]1CCCCN1c1nnc2ccc(O[C@@H]3CC[C@H](NC(=O)Nc4cc(C(C)(C)C)nn4-c4cccc(OCCN(C)C)c4)c4ccccc43)cn12 [Example 123, 1-{5-tert-Butyl-2-[3-(2-dimethylamino-ethoxy)-phenyl]-2H-pyrazol-3-yl}-3-{(1S,4R)-4-[3-((R)-2-methyl-piperidin-1-yl)-[1,2,4]triazolo[4,3-a]pyridin-6-yloxy]-1,2,3,4-tetrahydro-naphthalen-1-yl}-urea partial formate salt] | < 10
15 | < 10 | C[C@@H]1CCC[C@H](C)N1c1nnc2ccc(O[C@@H]3CC[C@H](NC(=O)Nc4cc(C(C)(C)C)nn4-c4cnn(CCN5CCOCC5)c4)c4ccccc43)cn12 [Example 124, 1-[3-tert-Butyl-1′-(2-morpholin-4-yl-ethyl)-1′H-[1,4′]bipyrazolyl-5-yl]-3-((1S,4R)-4-[3-((2S,6R)-2,6-dimethyl-piperidin-1-yl)-[1,2,4]triazolo[4,3-a]pyridin-6-yloxy]-1,2,3,4-tetrahydro-naphthalen-1-yl)-urea formate salt] | < 10
16 | < 10 | C[C@H]1CCCCN1c1nnc2ccc(O[C@@H]3CC[C@H](NC(=O)Nc4cc(C(C)(C)C)nn4CCN(C)C)c4ccccc43)cn12 [Example 127, 1-[5-tert-Butyl-2-(2-dimethylamino-ethyl)-2H-pyrazol-3-yl]-3-{(1S,4R)-4-[3-((S)-2-methyl-piperidin-1-yl)-[1,2,4]triazolo[4,3-a]pyridin-6-yloxy]-1,2,3,4-tetrahydro-naphthalen-1-yl}-urea formate salt] | < 10
17 | < 10 | C[C@@H]1CCC[C@H](C)N1c1nnc2ccc(O[C@@H]3CC[C@H](NC(=O)Nc4cc(C(C)(C)C)nn4-c4cccc(CN5CCOCC5)c4)c4ccccc43)cn12 [Example 130, 1-[5-tert-Butyl-2-(3-morpholin-4-ylmethyl-phenyl)-2H-pyrazol-3-yl]-3-{(1S,4R)-4-[3-((2S,6R)-2,6-dimethyl-piperidin-1-yl)-[1,2,4]triazolo[4,3-a]pyridin-6-yloxy]-1,2,3,4-tetrahydro-naphthalen-1-yl}-urea formate salt] | < 10
